Measured values reported in patent publication US9421204B2, “Oligomer modified diaromatic substituted compounds” (priority 2010, dated 2016).
Where two headings read alike, the source gives them in different places.

Assays:
HIV-1RF = assay: Anti-HIV-1 cytoprotection assay in CEM-SS cells; type: cell-based; settings: for EC50: CEM-SS cells, XTT, read-out: CEM-SS/HIV-1RF EC50; for Therapeutic Index: CEM-SS/HIV-1RF
Protocol: Cell Preparation—CEM-SS cells were passaged in T-75 flasks prior to use in the antiviral assay. On the day preceding the assay, the cells were split 1:2 to assure they were in an exponential growth phase at the time of infection. Total cell and viability quantification was performed using a hemocytometer and Trypan Blue dye exclusion. […] The cells were resuspended at 5×10^4 cells per ml in tissue culture medium and added to the drug containing microtiter plates in a volume of 50 μL.
Virus Preparation—The virus used for the assay was the lymphocyte-tropic virus strain HIV-IRF. The virus was obtained from the NIH AIDS Research and Reference Reagent Program and stock virus pools were produced in CEM-SS cells. A pretitred aliquot of virus was removed from the freezer (−80° C.) and allowed to thaw slowly to room temperature in a biological safety cabinet.
Plate Format—Each plate contains cell control wells (cells only), virus control wells (cells plus virus), drug toxicity wells (cells plus drug only), drug colorimetric control wells (drug only) as well as experimental wells (drug plus cells plus virus). Samples were tested in triplicate with eleven half-log dilutions per compound.
Efficacy and Toxicity XTT—Following incubation at 37° C. in a 5% CO2 incubator, the test plates were stained with the tetrazolium dye XTT (2,3-bis(2-methoxy-4-nitro-5-sulfophenyl)-5-[(phenylamino)carbonyl]-2H-tetrazolium hydroxide). XTT-tetrazolium is metabolized by the mitochondrial enzymes of metabolically active cells to a soluble formazan product, allowing rapid quantitative analysis of the inhibition of HIV induced cell killing by anti-HIV test substances. XTT solution was prepared daily as a stock of 1 mg/mL in RPMI1640. Phenazine methosulfate (PMS) solution was prepared at 0.15 mg/mL in PBS and stored in the dark at −20° C. XTT/PMS stock was prepared immediately before use by adding 40 μL of PMS per ml of XTT solution. Fifty microliters of XTT/PMS was added to each well of the plate and the plate was re-incubated for 4 hours at 37° C. Plates were sealed with adhesive plate sealers and shaken gently or inverted several times to mix the soluble fosmazan product and the plate was read spectrophotometrically at 450/650 nm with a Molecular Devices Vmax plate reader.
Anti-HIV-1 Cytopathic Effects Inhibition Assay Evaluations: Eight compounds were evaluated against the RF strain of HIV-1 in CEM-SS cells using a 12 concentration dose response curve.
Data Analysis—Raw data was collected from the Softmax Pro 4.6 software and imported into a Excel XLFit4 spreadsheet for analysis by four parameter curve fit calculations. Both antiviral activity and toxicity are calculated.

[1] = pKa determination (Sirius GLpKa); type: physicochemical; settings: aqueous pKa, 25° C.
Protocol: The Sirius GLpKa instrument is used to determine the pKa and Log P. A blank standardization has to be completed first and passed in order to conduct the compound experiments. The solutions used by the instrument for the blank titration include water, a pH solution, and a surfactant (TRITON X-100). The TRITON X-100 was purchased commercially from Sirus. The 0.5% solution of TRITON X-100 was used in the experiment. In a 1 L volumetric flask 5 mls of TRITON X-100 is added and MILLI Q water to volume. The vessels used by the instrument were filled to ⅓ of their volume with each solution. Therefore the assay tray contains one vessel for water, pH solution, and surfactant for the blank run. The temperature of the water bath for the instrument is 25° C. The blank is calculated as an average of three “good” experiments. The “good” was denoted by a green check mark next to the assay number in the computer software. Once the blank was run successfully the instrument was ready to conduct the experiments.
The pKa has to be determined first in order to calculate the Log P. The API is used to determine the pKa needed for the Log P experiment followed by the conjugates. The base compound was first weighed into a vessel. The amount weighed for each sample was 10% of the molecular weight of the compound. The same procedure was followed for each conjugate. The vessels were placed in the assay tray of the instrument. A method had to be set up for the pKa run. The experimental parameters are entered into the computer software. These included sample weight, molecular weight, assay type (aqueous pKa), number of assays (three), and titration range (generally 3.5-12). The run was started. There are three measurements for each run that are averaged to obtain the final results from the data points collected in the calculation software. All runs were denoted as “good” by the green check mark next to the assay number.

[2] = Toxicity XTT in CEM-SS cells (cytoprotection assay); type: cell-based; settings: human, CEM-SS cells, XTT; read-out: CEM-SS TC50
Procedure, shortened: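 CEM-SS cells in exponential growth (>95% viable) were plated with compound alone, as eleven half-log dilutions in triplicate, at 37 °C and 5% CO2. Viability was measured by XTT/PMS metabolism over 4 h, read at 450/650 nm. Toxicity was derived by four-parameter curve fitting.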

in vitro = in vitro ADME; settings: human; for Papp A→B at 2 hours, 10 μM / Papp B→A at 2 hours, 10 μM: pH 7.4; for Papp A→B at 2 hours, 10 μM: read-out: Average Papp, A→B; for Papp B→A at 2 hours, 10 μM: read-out: Average Papp, B→A; for efflux ratio at 2 hours, 10 μM: read-out: Efflux Ratio (B→A/A→B)
Protocol: Each determination was performed in duplicate.
Vr is the volume of the receiver compartment in cm^3.
Vd is the volume of the donor compartment in cm^3.
A is the area of the cell monolayer (1.13 cm^2 for 12-well Transwell®).
CN is the nominal dosing concentration of the dosing solution in μM.
CA is the average of the nominal dosing concentration and the measured 120 minute donor concentration in μM.
Cr^final is the receiver concentration in μM at the end of the incubation period.
Cd^final is the concentration of the donor in μM at the end of the incubation period.

[3] = Human immunodeficiency virus 1, CEM-SS
[4] = Caco-2, pH 7.4, Test 2, 10 μM, read-out: Recovery (%) A→B
[5] = Caco-2, pH 7.4, Test 2, 10 μM, read-out: Recovery (%) B→A
[6] = Caco-2, pH 7.4, Test 1, 10 μM, read-out: Recovery (%) A→B
[7] = Caco-2, pH 7.4, Test 1, 10 μM, read-out: Recovery (%) B→A

| Compound | EC50 (HIV-1RF) | Therapeutic Index (HIV-1RF) | pKa1 [1] | EC50 (HIV-1RF; [3]) | CC50 [2] | Papp A→B at 2 hours, 10 μM (in vitro; Caco-2, pH 7.4, Test 2, 10 μM) | Papp B→A at 2 hours, 10 μM (in vitro; Caco-2, pH 7.4, Test 2, 10 μM) | recovery at 2 h, 10 μM (in vitro; [4]) | recovery at 2 h, 10 μM (in vitro; [5]) | efflux ratio at 2 hours, 10 μM (in vitro; Caco-2, pH 7.4, Test 2) | Papp A→B at 2 hours, 10 μM (in vitro; Caco-2, pH 7.4, Test 1, 10 μM) | Papp B→A at 2 hours, 10 μM (in vitro; Caco-2, pH 7.4, Test 1, 10 μM) | recovery at 2 h, 10 μM (in vitro; [6]) | recovery at 2 h, 10 μM (in vitro; [7]) | efflux ratio at 2 hours, 10 μM (in vitro; Caco-2, pH 7.4, Test 1) |
| --- | --- | --- | --- | --- | --- | --- | --- | --- | --- | --- | --- | --- | --- | --- | --- |
| 5-O-mPEG9-Delavirdine [mPEG9-O-Delavirdine] | 130 nM | 323.1 | 4.655 |  |  |  |  |  |  |  |  |  |  |  |  |
| COCCNc1ccc2[nH]c(C(=O)N3CCN(c4ncccc4NC(C)C)CC3)cc2c1 [5-mPEG1-NH-Delavirdine, 5-mPEG-NH-Delavirdine] |  | 1083.11 |  | 47 nM | 50900 nM | 50.2 ×10⁻⁶ cm/s | 39.4 ×10⁻⁶ cm/s | 91% | 92% | 0.8 |  |  |  |  |  |
| COCCOCCNc1ccc2[nH]c(C(=O)N3CCN(c4ncccc4NC(C)C)CC3)cc2c1 [5-mPEG2-NH-Delavirdine] |  | 3266.29 |  | 17 nM | 55500 nM | 46.2 ×10⁻⁶ cm/s | 41.1 ×10⁻⁶ cm/s | 88% | 88% | 0.9 |  |  |  |  |  |
| COCCOCCOCCOc1ccc2[nH]c(C(=O)N3CCN(c4ncccc4NC(C)C)CC3)cc2c1 [mPEG3-O-Delavirdine, 5-O-mPEG3-Delavirdine] |  | 499.0 | 3.792 | 54 nM | 26900 nM | 41.4 ×10⁻⁶ cm/s | 29.1 ×10⁻⁶ cm/s | 95% | 101% | 0.7 | 38.4 ×10⁻⁶ cm/s | 33.9 ×10⁻⁶ cm/s | 66% | 61% | 0.9 |
| COCCOCCOCCOCCOc1ccc2[nH]c(C(=O)N3CCN(c4ncccc4NC(C)C)CC3)cc2c1 [mPEG4-O-Delavirdine, 5-O-mPEG4-Delavirdine] |  | 213.8 | 4.275 | 160 nM | 34000 nM |  |  |  |  |  | 39.3 ×10⁻⁶ cm/s | 34.8 ×10⁻⁶ cm/s | 74% | 65% | 0.9 |
| COCCOCCOCCOCCOCCOc1ccc2[nH]c(C(=O)N3CCN(c4ncccc4NC(C)C)CC3)cc2c1 [mPEG5-O-Delavirdine, 5-O-mPEG5-Delavirdine] |  | 19.0 | 4.454 | 760 nM | 14400 nM | 33.3 ×10⁻⁶ cm/s | 38.9 ×10⁻⁶ cm/s | 97% | 95% | 1.2 | 29.9 ×10⁻⁶ cm/s | 39.1 ×10⁻⁶ cm/s | 71% | 65% | 1.3 |
| COCCOCCOCCOCCOCCOCCOc1ccc2[nH]c(C(=O)N3CCN(c4ncccc4NC(C)C)CC3)cc2c1 [mPEG6-O-Delavirdine, 5-O-mPEG6-Delavirdine] |  | 26.7 | 4.447 | 840 nM | 22500 nM |  |  |  |  |  | 16.1 ×10⁻⁶ cm/s | 34.1 ×10⁻⁶ cm/s | 67% | 72% | 2.1 |
| COCCOCCOCCOCCOCCOCCOCCOc1ccc2[nH]c(C(=O)N3CCN(c4ncccc4NC(C)C)CC3)cc2c1 [mPEG7-O-Delavirdine, 5-O-mPEG7-Delavirdine] |  | 76.1 | 4.683 | 470 nM | 35500 nM | 23.1 ×10⁻⁶ cm/s | 39.3 ×10⁻⁶ cm/s | 94% | 95% | 1.7 | 14.2 ×10⁻⁶ cm/s | 36.6 ×10⁻⁶ cm/s | 74% | 69% | 2.6 |
| COCCOCCOCCOCCOCCOCCOCCOCCOc1ccc2[nH]c(C(=O)N3CCN(c4ncccc4NC(C)C)CC3)cc2c1 [mPEG8-O-Delavirdine, 5-O-mPEG8-Delavirdine] |  | 144.2 | 4.667 | 360 nM | 52500 nM |  |  |  |  |  | 4.98 ×10⁻⁶ cm/s | 43.6 ×10⁻⁶ cm/s | 80% | 82% | 8.8 |
